Experimental data from patent US7186735B2, “Acylated arylcycloalkylamines and their use as pharmaceuticals” (Sanofi-Aventis Deutschland GmbH, priority 2002, dated 2007).

Target: eNOS promoter
Assay: Activation of eNOS transcription (eNOS promoter-luciferase reporter gene assay)
Format: cell-based
Conditions: human endothelial cell line stably transfected with eNOS promoter-luciferase construct; 18 h incubation; EC50 determined graphically from TIR vs concentration; read-out: eNOS transcription induction ratios EC50
Experimental: Determination of Activation of eNOS Transcription
Activation of eNOS transcription was determined as described in detail in Li et al., “Activation of protein kinase C alpha and/or epsilon enhances transcription of the human endothelial nitric oxide synthase gene”, Mol. Pharmacol. 53 (1998) 630, the content of which is incorporated herein by reference.
Briefly, a 3.5 kB long fragment 5′ of the starting codon of the eNOS gene was cloned, sequenced and cloned in firefly luciferase expression plasmids to monitor activation of the eNOS promoter by reporter gene activity. A human endothelial cell line stable transfected and expressing this promoter-reporter construct was used for compound testing. Cells were incubated for 18 h with compounds.
All compounds were dissolved in sterile dimethyl sulfoxide (DMSO). A final concentration of 0.5% DMSO in complete medium was allowed. Induction of reporter gene expression in these cells was measured using a standard luciferase assay system (Promega, Cat. No E150) according to the manufacturer's instructions. Luciferase induction in cells incubated with compounds were compared to those incubated with solvent alone. The ratio of both activities (transcription induction ratio, TIR) was plotted as a function of compound concentration. Typically, TIR values started at low concentrations at a ratio of 1, indicating no compound effect, and extended up to a maximum TIR value TIR(max) which indicates the increase of the eNOS transcription. EC50 values of transcription induction ratios as a function of compound concentration were determined graphically.

EC50 | Structure (SMILES)
4300 nM | COCc1ccc(C(=O)N[C@@H]2C[C@H]2c2ccccc2)cn1 (racemic) [Example 27]
100 nM | O=C(N[C@@H]1C[C@H]1c1ccccc1)c1ccc2cc[nH]c2c1 (racemic) [Example 29]
950 nM | Nc1ncccc1C(=O)N[C@@H]1C[C@H]1c1ccccc1 (racemic) [Example 24]
32000 nM | O=C(N[C@@H]1C[C@H]1c1ccccc1)c1cccc(N2CCOCC2)c1 (racemic) [Example 16]
1500 nM | O=C(N[C@@H]1C[C@H]1c1ccccc1)c1ccc(F)cc1 (relative stereo) [Example 40, 4-Fluoro-N-(trans-2-phenylcyclopropyl)benzamide]
1300 nM | O=C(N[C@@H]1C[C@H]1c1ccccc1)c1cccc(N2CCCC2)c1 (racemic) [Example 13]
10000 nM | Cc1ncc(C(=O)N[C@@H]2C[C@H]2c2ccccc2)s1 (racemic) [Example 12]
190 nM | O=C(N[C@@H]1C[C@H]1c1ccccc1)c1ccc(F)cc1 (relative stereo) [Example 39, 4-fluoro-N-(trans-2-phenylcyclopropyl)benzamide]
59000 nM | CN1CCN(c2cccc(C(=O)N[C@@H]3C[C@H]3c3ccccc3)c2)CC1 (racemic) [Example 15]
430 nM | Nc1nccnc1C(=O)N[C@@H]1C[C@H]1c1ccccc1 (racemic) [Example 28]
3500 nM | O=C(N[C@@H]1C[C@H]1c1ccccc1)c1ccc(N2CCOCC2)nc1 (racemic) [Example 9]
1100 nM | Cc1ccc(C(=O)N[C@@H]2C[C@H]2c2ccccc2)cn1 (racemic) [Example 25]
100 nM | O=C(N[C@@H]1C[C@H]1c1ccccc1)c1ccc2[nH]ccc2c1 (racemic) [Example 30]
330 nM | Cc1nc2ccc(C(=O)N[C@@H]3C[C@H]3c3ccccc3)cc2[nH]1 (racemic) [Example 18]
5100 nM | O=C(N[C@@H]1C[C@H]1c1ccccc1)c1cnc2c(c1)CCCC2 (racemic) [Example 10]
11000 nM | O=C(N[C@@H]1C[C@H]1c1ccccc1)c1cccc(N2CCCCC2)c1 (racemic) [Example 14]
12000 nM | Cc1cc(C)c(C(=O)NC2CC2c2ccccc2)c(N)n1 (racemic) [Example 33]
780 nM | COc1ccc(C(=O)N[C@@H]2C[C@H]2c2ccccc2)cn1 (racemic) [Example 11]
180 nM | O=C(N[C@@H]1C[C@H]1c1ccccc1)c1ccc(F)cc1 (relative stereo) [Example 41, 4-Fluoro-N-(trans-2-phenylcyclopropyl)benzamide]

Second part, the compound before the results:

Structure (SMILES) | EC50
Cc1cc(C(=O)N[C@@H]2C[C@H]2c2ccccc2)c(C)n1Cc1cccs1 (racemic) [Example 17] | < 10 nM
O=C(NC1CC1c1ccccc1)c1cccc2[nH]ccc12 (racemic) [Example 31] | 470 nM
Cc1nc(C)c(C(=O)N[C@@H]2C[C@H]2c2ccccc2)o1 (racemic) [Example 1] | 18000 nM
O=C(NC1CC1c1ccccc1)c1ccc(F)cc1F (racemic) [Example 36] | 310 nM
Cc1ccc(C(=O)N[C@@H]2C[C@H]2c2ccccc2)c(Cl)n1 (racemic) [Example 26] | 290 nM
O=C(NC1CC1c1ccccc1)c1cccc(Cl)c1Cl (racemic) [Example 34] | 1200 nM
CN(C)c1cccc(C(=O)NC2CC2c2ccccc2)c1 (racemic) [Example 32] | 1800 nM
Cc1nc(N)c(C(=O)N[C@@H]2C[C@H]2c2ccccc2)nc1C (racemic) [Example 5] | 160 nM
Cc1nc(C)c(C(=O)N[C@@H]2C[C@H]2c2ccccc2)s1 (racemic) [Example 23] | 600 nM
O=C(NC1CC1c1ccccc1)c1ccc(Cl)s1 (racemic) [Example 38] | 230 nM
O=C(N[C@@H]1C[C@H]1c1ccccc1)c1cnn(-c2ccccc2)c1C(F)(F)F (racemic) [Example 21] | 240 nM
CC(C)S(=O)(=O)c1csc(C(=O)N[C@@H]2C[C@H]2c2ccccc2)c1Cl (racemic) [Example 19] | 450 nM
Cc1ccc(C(=O)NC2CC2c2ccccc2)s1 (racemic) [Example 37] | 260 nM
Cc1ccc(C(=O)N[C@@H]2C[C@H]2c2ccccc2)c(C)n1 (racemic) [Example 4] | 330 nM
Cc1cc(C(=O)N[C@@H]2C[C@H]2c2ccccc2)c(C)n1Cc1ccncc1 (racemic) [Example 22] | 24000 nM
Cc1ccc(C(=O)N[C@@H]2C[C@H]2c2ccccc2)cc1NS(C)(=O)=O (racemic) [Example 7] | 1800 nM
Cc1nc(C2CC2)sc1C(=O)N[C@@H]1C[C@H]1c1ccccc1 (racemic) [Example 3] | 300 nM
CS(=O)(=O)Nc1cccc(C(=O)N[C@@H]2C[C@H]2c2ccccc2)c1 (racemic) [Example 8] | 2000 nM
Cc1c(C(=O)N[C@@H]2C[C@H]2c2ccccc2)cnn1-c1ccccc1 (racemic) [Example 20] | 110 nM
